Experimental data as given in paper PMC6691788, “Design and synthesis of phthalazine-based compounds as potent anticancer agents with potential antiangiogenic activity via VEGFR-2 inhibition” (Journal of Enzyme Inhibition and Medicinal Chemistry, 2019).

Legend:
HCT-116 = test: NCI 60 cell panel SRB screen; type: cell-based; details: Homo sapiens; HCT-116, single dose 10 μM; read-out: percent cell growth promotion
MCF7 = test: NCI 60 cell panel SRB screen; type: cell-based; details: Homo sapiens, MCF7, read-out: percent cell growth promotion
A498 = test: NCI 60 cell panel SRB screen; type: cell-based; details: Homo sapiens; A498, single dose 10 μM; read-out: percent cell growth promotion
DU-145 = test: NCI 60 cell panel SRB screen; type: cell-based; details: Homo sapiens; DU-145, single dose 10 μM; read-out: percent cell growth promotion
MDA-MB-435 = test: NCI 60 cell panel SRB screen; type: cell-based; details: Homo sapiens, MDA-MB-435, read-out: percent cell growth promotion
ACHN = test: NCI 60 cell panel SRB screen; type: cell-based; details: Homo sapiens, single dose 10 μM, read-out: percent cell growth promotion
SK-MEL-5 = test: NCI 60 cell panel SRB screen; type: cell-based; details: Homo sapiens, SK-MEL-5, read-out: percent cell growth promotion
SN12C = test: NCI 60 cell panel SRB screen; type: cell-based; details: Homo sapiens, single dose 10 μM, read-out: percent cell growth promotion
UACC-62 = test: NCI 60 cell panel SRB screen; type: cell-based; details: Homo sapiens, UACC-62, read-out: percent cell growth promotion
SF-295 = test: NCI 60 cell panel SRB screen; type: cell-based; details: Homo sapiens; SF-295, single dose 10 μM; read-out: percent cell growth promotion
full NCI 60 cell panel = test: NCI 60 cell panel SRB screen, whole panel; type: cell-based, human
Text: Aiming to evaluate the general antitumour activity of the synthesised phthalazines, the structures of the final compounds were submitted to National Cancer Institute “NCI” (www.dtp.nci.nih.gov), Bethesda, Maryland, USA. In vitro NCI anticancer screening involves two-stage process, the first stage started with the evaluation of the selected candidates against the full NCI 60 cell lines panel representing leukaemia, non-small cell lung cancer, melanoma, colon, CNS, breast, ovarian, renal and prostate cancers at a single dose of 10 µM. NCI selection is based on degree of structure variation and application of computer modelling techniques to prioritise compounds based on their ability to add diversity to the NCI small molecule compound collection.
Eight compounds (6b, 6e, 7b, 13a, 13c, 16a, 16d and 17a) were selected by NCI for further 5 log dose screening against full NCI 60 cell panel. All the 60 cell lines, representing nine tumour subpanels (leukaemia, non-small cell lung cancer, colon cancer, CNS cancer, prostate cancer, melanoma, ovarian cancer, renal cancer and breast cancer) which were incubated at five different concentrations (0.01, 0.1, 1, 10 and 100 µM) of each of the test compounds. The outcomes were used to create log concentration vs % growth inhibition curves, then three response parameters (GI50, TGI and LC50) were calculated for each cell line, (Tables S4 and S5 in Supplementary material).
The human tumor cell lines of the cancer-screening panel were grown in RPMI 1640 medium containing 5% fetal bovine serum and […] L-glutamine. For a typical screening experiment, cells are inoculated into 96 well microtiter plates in 100 ml at plating densities ranging from 5000 to 40,000 cells/well depending on the doubling time of individual cell lines. After cell inoculation, the microtiter plates are incubated at 37 °C, 5% CO2, 95% air and 100%
relative humidity for 24 h prior to addition of experimental drugs. After 24 h, two plates of each cell line are fixed in situ with TCA, to represent a measurement of the cell population for each cell line at the time of drug addition (Tz). Experimental drugs are dissolved in dimethyl sulfoxide at 400-fold the desired final maximum test concentration and stored frozen prior to use. At the time of drug addition, an aliquot of frozen concentrate is thawed and diluted to twice the desired final maximum test concentration with complete medium containing […] Gentamicin. Additional four, 10-fold or ½log serial dilutions are made to provide a total of five drug concentrations plus control. Aliquots of […] of these different drug dilutions are added to the appropriate microtiter wells already containing 100 ml of medium, resulting in the required final drug concentrations. Following drug addition, the plates are incubated for an additional 48 h at 37 °C, 5% CO2, 95% air, and 100% relative humidity. For adherent cells, the assay is terminated by the addition of cold TCA. Cells are fixed in situ by the gentle addition of […] of cold 50% (w/v) TCA (final concentration,10% TCA) and incubated for 60 min at 4 °C. The supernatant is discarded, and the plates are washed five times with tap water and air dried. Sulforhodamine B (SRB) solution (100 ml) at 0.4% (w/v) in 1% acetic acid is added to each well, and plates are incubated for 10 min at room temperature. After staining, unbound dye is removed by washing five times with 1% acetic acid and the plates are air dried. Bound stain is subsequently dissolved with 10 μM trizma base, and the absorbance is read on an automated plate reader at a wavelength of 515 nm. For suspension cells, the methodology is the same except that the assay is terminated by fixing settled cells at the bottom of the wells by gently adding […] of 80% TCA (final concentration, 16% TCA). […]

HOP-62 = test: NCI 60 cell panel SRB screen; type: cell-based; details: Homo sapiens; HOP-62, single dose 10 μM; read-out: percent cell growth promotion
SNB-19 = test: NCI 60 cell panel SRB screen; type: cell-based; details: Homo sapiens; SNB-19, single dose 10 μM; read-out: percent cell growth promotion
HCT-15 = test: NCI 60 cell panel SRB screen; type: cell-based; details: Homo sapiens; HCT-15, single dose 10 μM; read-out: percent cell growth promotion
CAKI-1 = test: NCI 60 cell panel SRB screen; type: cell-based, human; details: Homo sapiens; CAKI-1, single dose 10 μM; read-out: percent cell growth promotion
MDA-MB 231/ATCC = test: NCI 60 cell panel SRB screen; type: cell-based; details: Homo sapiens, MDA-MB-231, read-out: percent cell growth promotion
HS 578T = test: NCI 60 cell panel SRB screen; type: cell-based; details: Homo sapiens, Hs-578T, read-out: percent cell growth promotion
M14 = test: NCI 60 cell panel SRB screen; type: cell-based; details: Homo sapiens, M14, read-out: percent cell growth promotion
U251 = test: NCI 60 cell panel SRB screen; type: cell-based; details: Homo sapiens, U-251; U251, single dose 10 μM; read-out: percent cell growth promotion

## O=C(Nc1ccc(Nc2nncc3ccccc23)cc1)c1ccc(Cl)cc1 [Compound 5b, 4-Chloro-N-(4-(phthalazin-1-ylamino)phenyl)benzamide]
HCT-116
  activity at 10 µM: 100%
MCF7
  activity at 10 µM: 93%
A498
  activity at 10 µM: 98.7%
DU-145
  activity at 10 µM: 114%
MDA-MB-435
  activity at 10 µM: 103%
ACHN
  activity at 10 µM: 112%
SK-MEL-5
  activity at 10 µM: 99.8%
SN12C
  activity at 10 µM: 100%
UACC-62
  activity at 10 µM: 89.8%
SF-295
  activity at 10 µM: 102%
Full NCI 60 cell panel; Homo sapiens, 60 cell, mean over the panel, single dose 10 μM, read-out: Mean percent cell growth promotion
  activity at 10 µM: 101%
Full NCI 60 cell panel; single dose 10 µM
  cell growth inhibition, in words: Neither of the biarylamides (5b, and 5d) nor the piperazines (8a, 8d, 8f, 8g, 8h and 8i) showed any significant cell line growth inhibition
HOP-62
  activity at 10 µM: 91.8%
SNB-19
  activity at 10 µM: 104%
HCT-15
  activity at 10 µM: 109%
CAKI-1
  activity at 10 µM: 94.6%
MDA-MB 231/ATCC
  activity at 10 µM: 93.3%
HS 578T
  activity at 10 µM: 105%
M14
  activity at 10 µM: 99.7%
U251
  activity at 10 µM: 99.5%
